Measurements as given in patent US20120157401A1, “METHODS FOR TREATING NEUROFIBROMATOSIS” (PTC Therapeutics, Inc., priority 2009, published 2012).
Marks after values point to notes of the source that are not given here.

Columns and labels:
[1] = test system: HT1080 tumor cells in vivo; test: HT1080 xenograft studies of Compound 1205, Compound #10 and Compound 1330: tumor growth; parameters: species or system athymic nude mice; conditions: Study 24a, 10 mg/kg QD
Description: Experimental Design. HT1080 cells (5×10^6 cells/mouse) were implanted subcutaneously in male athymic nude mice. […] For comparison, Compound #10 was included in this study.

HT1080 xenografts = test: BrdU labeling of cells from HT1080 xenografts grown in nude mice; format: in vivo, athymic nude mice; conditions: Day 1, 2, 3; Compound #10 10 mg/kg oral QD, doxorubicin 6 mg/kg IP, bevacizumab 5 mg/kg IP
Procedure: Experimental Design. HT1080 cells (5×10^6 cells/mouse) were implanted subcutaneously in male athymic nude mice.
The mice were sacrificed 3 hours later, and the tumors collected. A single cell suspension was prepared from the tumor cells. The cells were permeabilized and an antibody to BrdU was used to stain cells that had entered S phase during the labeling period. The proportion of cells actively synthesizing DNA was determined by cell sorting.

MDA MB 468 xenografts = test: Tumor perfusion by DCE-MRI in MDA-MB-468 xenografts; format: in vivo, athymic nude mice; conditions: 10 mg/kg oral QD
Description: Experimental Design. Dynamic contrast-enhanced magnetic resonance imaging can be used preclinically and clinically to evaluate the anatomy of soft tissues, including the identification and accurate measurement of tumor volumes. In addition, evaluation of the intratumoral pharmacokinetics of contrast agents containing gadolinium can be used to measure vascular permeability characteristics. Coupling gadopentetate dimeglumine gadolinium to a […] like bovine serum albumin can reveal information about the necrotic (non-perfused) and non-necrotic (perfused) tumor volumes, and the percentage of vascular blood volume relative to the perfused tumor volume (known as the fractional blood volume [fBV]). Use of a […] tracer, gadopentetate dimeglumine, can reveal information regarding the volume transfer coefficient (K^trans), a variable that represents a combination of vascular permeability, vascular surface area, and blood flow.
Before each DCE-MRI scan, mice were injected intravenously with gadolinium-containing contrast dyes (bovine serum albumin-gadopentetate dimeglumine conjugate at ˜0.03 mmol/kg followed by gadopentetate dimeglumine at ˜0.2 mmol/kg). Baseline DCE-MRI measurements were taken on Day −1, test Compounds were administered on Day 0 through Day 5, and additional DCE-MRI measurements were taken on Days 1, 3, and 5. Image analyses were conducted with customized software. Total tumor volumes were measured by semi-automatically segmenting a region of interest around an anatomical image of the tumor. Tumor volumes of necrotic and non-necrotic tissues were measured by applying the same semi-automated segmentation process to a contrast dyed image. fBV and K^trans were computed using a standard Kety PK model.

With `COc1ccc(C2c3[nH]c4ccc(Cl)cc4c3CCN2C(=O)Oc2ccc(Cl)cc2)cc1` (racemic) [Compound #10] the “Difference vs. vehicle in median number of days to reach 1000 mm^3” value [1] was 8** Days, the “Mean difference in tumor growth rate at the Day that the vehicle-treated tumors taken off study” value ([1]; Day 11) was 59%** and the “Final mean terminal tumor size in treatment group” value ([1]; Xeno) was 1460 mm^3. The “BrdU staining of tumor cells (proportion of cells in S phase)” value (HT1080 xenografts) was “increased BrdU staining”, the “Change in mean tumor fBV in non-necrotic tissue” value (MDA MB 468 xenografts; Day 1 to Day 5) was “declined after Day 3” and the “Change in mean K^trans in non-necrotic tissue” value (MDA MB 468 xenografts; Day −1 to Day 5) was “decreased”. The “Change in mean necrotic tumor volume” value (MDA MB 468 xenografts; Day −1 to Day 5) was “rapidly increased”, the “Change in mean non-necrotic tumor volume” value (MDA MB 468 xenografts; Day −1 to Day 5) was “decreased” and the “Change in mean total tumor volume” value (MDA MB 468 xenografts; Day −1 to Day 5) was “little mean change”.
